As usually defined, the Ki is the equilibrium dissociation constant of an inhibitor or competing ligand from its target.

This passage reports Ki results from patent publication US10196390B2, “TYK2 inhibitors and uses thereof” (Nimbus Lakshmi, Inc., priority 2014, dated 2019).

Assay [1] concerns the target TYK2 (Homo sapiens (Human), UniProt P29597). Kind of assay: Tyk2 activity inhibition assay (radioactive kinase assay / Caliper assay). In kind it is biochemical. A digest of the protocol:
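Radiometric format: TYK2 with peptide substrate (20 μM) and 33P-ATP at 10 μM in HEPES pH 7.5, 1% DMSO, 120 min at room temp, P81 paper capture. Caliper mobility-shift format: TYK2 9.75 nM, peptide 30 at 3 uM, ATP 16 uM (also 1 mM), 25 min at 28° C.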

For assay [2], the target named is JAK2 (Homo sapiens (Human), UniProt O60674). Kind of assay: JAK2 activity inhibition assay (radioactive kinase assay / Caliper assay). In kind it is biochemical. The settings on record: read-out: JAK2 Ki. Summed up:
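Mobility-shift (Caliper) read-out of phosphorylated peptide substrate. Compound diluted in 25 mM HEPES pH 7.5, 0.01% Brij-35, 0.01% Triton, 0.5 mM EGTA; enzyme added, then peptide plus ATP in 10 mM MgCl2. Incubated 25 min at 28° C, stopped with EDTA buffer.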

Sequence of TYK2 (P29597 whole entry): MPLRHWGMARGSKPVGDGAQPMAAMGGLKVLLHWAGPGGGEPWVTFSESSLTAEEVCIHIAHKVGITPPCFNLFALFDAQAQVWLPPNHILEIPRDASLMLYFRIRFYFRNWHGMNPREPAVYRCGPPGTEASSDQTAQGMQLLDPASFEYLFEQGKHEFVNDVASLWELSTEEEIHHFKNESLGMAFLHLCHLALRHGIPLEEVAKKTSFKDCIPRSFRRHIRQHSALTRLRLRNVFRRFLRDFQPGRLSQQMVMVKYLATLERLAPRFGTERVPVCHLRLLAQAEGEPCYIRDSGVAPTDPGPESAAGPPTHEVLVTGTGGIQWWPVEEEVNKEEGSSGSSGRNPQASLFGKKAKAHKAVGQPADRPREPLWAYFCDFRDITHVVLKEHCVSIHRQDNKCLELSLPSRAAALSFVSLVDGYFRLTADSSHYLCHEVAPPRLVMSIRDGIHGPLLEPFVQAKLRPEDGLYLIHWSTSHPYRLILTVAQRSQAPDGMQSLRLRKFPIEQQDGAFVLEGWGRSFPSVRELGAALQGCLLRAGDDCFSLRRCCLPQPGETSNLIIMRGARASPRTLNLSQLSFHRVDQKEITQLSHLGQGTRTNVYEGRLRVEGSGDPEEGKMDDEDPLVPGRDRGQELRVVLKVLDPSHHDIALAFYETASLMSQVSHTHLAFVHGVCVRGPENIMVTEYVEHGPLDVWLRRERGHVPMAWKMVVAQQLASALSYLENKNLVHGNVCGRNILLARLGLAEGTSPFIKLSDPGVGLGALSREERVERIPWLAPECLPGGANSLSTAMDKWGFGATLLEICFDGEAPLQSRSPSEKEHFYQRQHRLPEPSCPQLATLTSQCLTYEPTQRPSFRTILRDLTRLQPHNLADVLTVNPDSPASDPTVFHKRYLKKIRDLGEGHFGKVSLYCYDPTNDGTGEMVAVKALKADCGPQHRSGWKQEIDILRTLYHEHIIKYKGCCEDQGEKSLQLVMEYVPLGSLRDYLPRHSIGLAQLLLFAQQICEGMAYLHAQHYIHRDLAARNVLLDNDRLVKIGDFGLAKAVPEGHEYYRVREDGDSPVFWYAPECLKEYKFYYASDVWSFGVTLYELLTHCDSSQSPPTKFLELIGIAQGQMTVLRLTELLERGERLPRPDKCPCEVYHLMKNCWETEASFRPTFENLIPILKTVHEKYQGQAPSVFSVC
Sequence of JAK2 (O60674 whole entry): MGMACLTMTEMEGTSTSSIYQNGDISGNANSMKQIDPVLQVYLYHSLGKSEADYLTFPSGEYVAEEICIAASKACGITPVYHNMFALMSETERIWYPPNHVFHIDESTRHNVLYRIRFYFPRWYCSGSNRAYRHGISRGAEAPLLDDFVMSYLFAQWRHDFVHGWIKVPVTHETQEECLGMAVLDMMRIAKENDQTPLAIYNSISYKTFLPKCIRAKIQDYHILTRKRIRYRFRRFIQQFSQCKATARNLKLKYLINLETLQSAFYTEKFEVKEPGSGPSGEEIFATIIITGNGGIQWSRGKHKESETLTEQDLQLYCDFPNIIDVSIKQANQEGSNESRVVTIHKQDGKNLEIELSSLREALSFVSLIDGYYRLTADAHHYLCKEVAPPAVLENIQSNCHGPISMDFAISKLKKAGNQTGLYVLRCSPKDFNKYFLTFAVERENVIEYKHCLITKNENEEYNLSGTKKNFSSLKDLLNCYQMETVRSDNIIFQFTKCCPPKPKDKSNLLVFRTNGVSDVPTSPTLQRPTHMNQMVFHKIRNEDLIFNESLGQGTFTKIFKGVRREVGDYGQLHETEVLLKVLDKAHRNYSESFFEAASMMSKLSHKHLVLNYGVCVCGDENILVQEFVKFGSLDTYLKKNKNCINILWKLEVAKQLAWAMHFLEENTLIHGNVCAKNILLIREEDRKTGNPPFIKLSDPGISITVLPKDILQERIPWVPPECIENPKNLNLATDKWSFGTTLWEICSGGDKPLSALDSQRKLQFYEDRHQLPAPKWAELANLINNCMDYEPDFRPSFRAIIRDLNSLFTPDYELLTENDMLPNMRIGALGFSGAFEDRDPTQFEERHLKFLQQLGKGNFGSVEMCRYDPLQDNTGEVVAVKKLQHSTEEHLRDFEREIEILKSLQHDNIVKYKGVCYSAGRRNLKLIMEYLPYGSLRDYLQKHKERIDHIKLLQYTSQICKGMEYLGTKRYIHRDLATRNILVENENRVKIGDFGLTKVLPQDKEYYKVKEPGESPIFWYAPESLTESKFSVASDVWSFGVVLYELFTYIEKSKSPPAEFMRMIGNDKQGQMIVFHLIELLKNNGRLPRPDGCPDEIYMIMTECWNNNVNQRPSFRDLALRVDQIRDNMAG

For `C[C@@]1(c2ccc(Nc3nc(-c4c(F)cccc4F)nc4c3C(=O)NC4)cc2)CCN(C2CCOCC2)C1=O` [Compound I-125, (S)-2-(2,6-difluorophenyl)-4-((4-(3-methyl-2-oxo-1-(tetrahydro-2H-pyran-4-yl)pyrrolidin-3-yl)phenyl)amino)-6,7-dihydro-5H-pyrrolo[3,4-d]pyrimidin-5-one], the inhibition constant Ki was below 10 nM in assay [1] and 10 to 100 nM in assay [2].
`C[C@]1(c2ccc(Nc3nc(-c4c(F)cccc4F)nc4c3C(=O)NC4)cc2)CCN(C2CCOCC2)C1=O` [Compound I-126, (R)-2-(2,6-difluorophenyl)-4-((4-(3-methyl-2-oxo-1-(tetrahydro-2H-pyran-4-yl)pyrrolidin-3-yl)phenyl)amino)-6,7-dihydro-5H-pyrrolo[3,4-d]pyrimidin-5-one]: the Ki is below 10 nM in assay [1] and 10 to 100 nM in assay [2].
On to `O=C(NCCN1CCOCC1)c1ccc(Nc2nc(-c3c(F)cccc3F)nc3c2C(=O)NC3)cc1` [Compound I-127, 4-((2-(2,6-difluorophenyl)-5-oxo-6,7-dihydro-5H-pyrrolo[3,4-d]pyrimidin-4-yl)amino)-N-(2-morpholinoethyl)benzamide], for which the Ki in assay [1] is below 10 nM; in assay [2] it was 10 to 100 nM.
For `COC(=O)[C@H]1C[C@H](Nc2nc(-c3c(F)cccc3F)nc3c2C(=O)NC3)C1` [Compound I-129, methyl (1r,3r)-3-((2-(2,6-difluorophenyl)-5-oxo-6,7-dihydro-5H-pyrrolo[3,4-d]pyrimidin-4-yl)amino)cyclobutane-1-carboxylate], in that order: above 1000 nM and above 1000 nM.
For the compound `O=C1NCc2nc(-c3c(F)cccc3F)nc(N[C@H]3C[C@H](C(=O)O)C3)c21` [Compound I-130, (1r,3r)-3-((2-(2,6-difluorophenyl)-5-oxo-6,7-dihydro-5H-pyrrolo[3,4-d]pyrimidin-4-yl)amino)cyclobutane-1-carboxylic Acid], the Ki in assay [1] and in assay [2] was above 1000 nM throughout.
In the case of `CCNC(=O)[C@H]1C[C@H](Nc2nc(-c3c(F)cccc3F)nc3c2C(=O)NC3)C1` [Compound I-131, (1r,3r)-3-((2-(2,6-difluorophenyl)-5-oxo-6,7-dihydro-5H-pyrrolo[3,4-d]pyrimidin-4-yl)amino)-N-ethylcyclobutane-1-carboxamide], the inhibition constant (Ki) in assay [1] and in assay [2] was above 1000 nM in each case.
As to `COC(=O)Cc1ccc(Nc2cc(-c3c(F)cccc3F)nc3c2C(=O)NC3)nc1` [Compound I-132, methyl 2-(6-((2-(2,6-difluorophenyl)-5-oxo-6,7-dihydro-5H-pyrrolo[3,4-b]pyridin-4-yl)amino)pyridin-3-yl)acetate], the inhibition constant Ki was below 10 nM in assay [1] and 10 to 100 nM in assay [2].
With `O=C1NCc2nc(-c3c(F)cccc3F)cc(Nc3ccc(C4CCNC4=O)cn3)c21` (stereo not shown) [Compound I-133, 2-(2,6-difluorophenyl)-4-((5-(2-oxopyrrolidin-3-yl)pyridin-2-yl)amino)-6,7-dihydro-5H-pyrrolo[3,4-b]pyridin-5-one], the figures for the Ki in assay [1] and in assay [2] were below 10 nM and 10 to 100 nM, respectively.
For `O=C1NCc2nc(-c3c(F)cccc3F)cc(Nc3ccc(OCCN4CCC4)cn3)c21` [Compound I-134, 4-((5-(2-(azetidin-1-yl)ethoxy)pyridin-2-yl)amino)-2-(2,6-difluorophenyl)-6,7-dihydro-5H-pyrrolo[3,4-b]pyridin-5-one], in that order: below 10 nM and 10 to 100 nM.
With `O=C(NC1CCOCC1)c1ccc(Nc2cc(-c3c(F)cccc3F)nc3c2C(=O)NC3)nc1` [Compound I-139, 6-((2-(2,6-difluorophenyl)-5-oxo-6,7-dihydro-5H-pyrrolo[3,4-b]pyridin-4-yl)amino)-N-(tetrahydro-2H-pyran-4-yl)nicotinamide], the Ki is below 10 nM in assay [1] and 10 to 100 nM in assay [2].
Take `N[C@H]1CCCN(c2ccc(Nc3cc(-c4c(F)cccc4F)nc4c3C(=O)NC4)nc2)C1` [Compound I-143, (S)-4-((5-(3-aminopiperidin-1-yl)pyridin-2-yl)amino)-2-(2,6-difluorophenyl)-6,7-dihydro-5H-pyrrolo[3,4-b]pyridin-5-one]: the Ki in assay [1] was below 10 nM; in assay [2], 10 to 100 nM.
Turning to `COc1ccc(Nc2cc(-c3c(F)cccc3Cl)nc3c2C(=O)NC3)nc1` [Compound I-145, 2-(2-chloro-6-fluorophenyl)-4-((5-methoxypyridin-2-yl)amino)-6,7-dihydro-5H-pyrrolo[3,4-b]pyridin-5-one], the inhibitory constant (Ki) is below 10 nM in assay [1] and 10 to 100 nM in assay [2].
On to `O=C1NCc2nc(-c3c(F)cccc3F)nc(Nc3ccc(C4CCN(CCO)C4=O)cc3)c21` (stereo not shown) [Compound I-149, 2-(2,6-difluorophenyl)-4-((4-(1-(2-hydroxyethyl)-2-oxopyrrolidin-3-yl)phenyl)amino)-6,7-dihydro-5H-pyrrolo[3,4-d]pyrimidin-5-one], for which the inhibition constant Ki in assay [1] is below 10 nM; in assay [2] it was 100 to 1000 nM.
In the case of `CN1CC[C@@](C)(c2ccc(Nc3nc(-c4c(F)cccc4F)nc4c3C(=O)NC4)cc2)C1=O` [Compound I-151, (S)-2-(2,6-difluorophenyl)-4-((4-(1,3-dimethyl-2-oxopyrrolidin-3-yl)phenyl)amino)-6,7-dihydro-5H-pyrrolo[3,4-d]pyrimidin-5-one], the inhibition constant (Ki) in assay [1] was below 10 nM; in assay [2], 100 to 1000 nM.
For `CN1CC[C@](C)(c2ccc(Nc3nc(-c4c(F)cccc4F)nc4c3C(=O)NC4)cc2)C1=O` [Compound I-152, (R)-2-(2,6-difluorophenyl)-4-((4-(1,3-dimethyl-2-oxopyrrolidin-3-yl)phenyl)amino)-6,7-dihydro-5H-pyrrolo[3,4-d]pyrimidin-5-one], in that order: below 10 nM and 100 to 1000 nM.
For `O=C1NCc2nc(-c3c(F)cccc3F)nc(Nc3ccc(C4CCCNC4=O)cc3)c21` (stereo not shown) [Compound I-153, 2-(2,6-difluorophenyl)-4-((4-(2-oxopiperidin-3-yl)phenyl)amino)-6,7-dihydro-5H-pyrrolo[3,4-d]pyrimidin-5-one], in that order: below 10 nM and 100 to 1000 nM.
For `O=C1NCc2nc(-c3c(F)cccc3F)nc(Nc3ccc([C@@H]4CCCNC4=O)cc3)c21` [Compound I-155, (S)-2-(2,6-difluorophenyl)-4-((4-(2-oxopiperidin-3-yl)phenyl)-amino)-6,7-dihydro-5H-pyrrolo[3,4-d]pyrimidin-5-one], in that order: below 10 nM and 100 to 1000 nM.
Regarding `O=C(O)c1ccc(Nc2nc(-c3c(F)cccc3F)nc3c2C(=O)NC3)cc1` [Compound I-156, 4-((2-(2,6-difluorophenyl)-5-oxo-6,7-dihydro-5H-pyrrolo[3,4-d]pyrimidin-4-yl)amino)benzoicacid], the values for the Ki in assay [1] and in assay [2] were below 10 nM and 100 to 1000 nM, respectively.
As to `O=C1NCc2nc(-c3c(F)cccc3F)nc(Nc3ccc(C(=O)N4CC5(COC5)C4)cc3)c21` [Compound I-157, 4-((4-(2-oxa-6-azaspiro[3.3]heptane-6-carbonyl)phenyl)amino)-2-(2,6-difluorophenyl)-6,7-dihydro-5H-pyrrolo[3,4-d]pyrimidin-5-one], the Ki in assay [1] lay in the range of 10 to 100 nM; in assay [2], 100 to 1000 nM.
As to `O=C1NCc2nc(-c3c(F)cccc3F)nc(Nc3ccc(C(=O)N4CCC4)cc3)c21` [Compound I-158, 4-((4-(azetidine-1-carbonyl)phenyl)amino)-2-(2,6-difluoro-phenyl)-6,7-dihydro-5H-pyrrolo[3,4-d]pyrimidin-5-one], the results for the inhibitory constant (Ki) in assay [1] and in assay [2] were 10 to 100 nM and 100 to 1000 nM, respectively.
